Source: patent publication US20120083476A1, “HETEROARYL-SUBSTITUTED SPIROCYCLIC DIAMINE UREA MODULATORS OF FATTY ACID AMIDE HYDROLASE” (Janssen Pharmaceutica NV, priority 2009, published 2012)
Structures can show the parent of a compound that is named as a salt. Where two headings read alike, the source gives them in different places.

How the values were obtained:
Rat FAAH = target: T1, Rat FAAH (Rattus norvegicus, UniProt P97612); test: Assay Method 2: rat FAAH assay (3H-anandamide hydrolysis in cell homogenate); type: biochemical
T1 construct: expressed in transfected cells; host or cells: SK-N-MC cells stably transfected with rat FAAH cDNA (G418 selection)
T1 sequence (P97612 1-579): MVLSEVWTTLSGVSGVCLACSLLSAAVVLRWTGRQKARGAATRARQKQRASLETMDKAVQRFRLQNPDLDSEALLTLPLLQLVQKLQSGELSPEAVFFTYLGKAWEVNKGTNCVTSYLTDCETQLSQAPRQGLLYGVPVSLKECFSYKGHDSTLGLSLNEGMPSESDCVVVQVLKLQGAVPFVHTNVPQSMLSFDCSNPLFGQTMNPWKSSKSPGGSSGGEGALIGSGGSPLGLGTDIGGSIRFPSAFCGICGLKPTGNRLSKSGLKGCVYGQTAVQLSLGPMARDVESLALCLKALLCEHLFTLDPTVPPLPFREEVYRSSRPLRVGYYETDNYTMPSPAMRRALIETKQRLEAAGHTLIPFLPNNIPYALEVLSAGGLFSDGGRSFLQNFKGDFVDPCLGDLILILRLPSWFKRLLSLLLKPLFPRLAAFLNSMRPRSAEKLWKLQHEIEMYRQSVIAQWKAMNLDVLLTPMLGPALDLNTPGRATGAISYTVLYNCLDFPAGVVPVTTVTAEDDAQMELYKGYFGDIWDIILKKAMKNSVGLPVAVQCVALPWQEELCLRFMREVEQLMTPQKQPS
Summary of the method: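 Homogenates of T84 cells or SK-N-MC cells stably transfected with rat FAAH, in pH 9 Tris/EDTA/glycerol/Triton buffer, incubated 1 h at room temperature with 3H-anandamide. Released labeled ethanolamine separated from substrate on activated charcoal and counted by scintillation; values averaged over runs.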

FAAH = target: T2, FAAH (Homo sapiens, UniProt O00519); test: Assay Method 1: human FAAH assay (3H-anandamide hydrolysis in cell homogenate); type: biochemical; design: expressed in transfected cells; host or cells: SK-N-MC cells stably transfected with human FAAH cDNA (G418 selection); alternatively T84 cell pellets
T2 sequence (O00519 1-579): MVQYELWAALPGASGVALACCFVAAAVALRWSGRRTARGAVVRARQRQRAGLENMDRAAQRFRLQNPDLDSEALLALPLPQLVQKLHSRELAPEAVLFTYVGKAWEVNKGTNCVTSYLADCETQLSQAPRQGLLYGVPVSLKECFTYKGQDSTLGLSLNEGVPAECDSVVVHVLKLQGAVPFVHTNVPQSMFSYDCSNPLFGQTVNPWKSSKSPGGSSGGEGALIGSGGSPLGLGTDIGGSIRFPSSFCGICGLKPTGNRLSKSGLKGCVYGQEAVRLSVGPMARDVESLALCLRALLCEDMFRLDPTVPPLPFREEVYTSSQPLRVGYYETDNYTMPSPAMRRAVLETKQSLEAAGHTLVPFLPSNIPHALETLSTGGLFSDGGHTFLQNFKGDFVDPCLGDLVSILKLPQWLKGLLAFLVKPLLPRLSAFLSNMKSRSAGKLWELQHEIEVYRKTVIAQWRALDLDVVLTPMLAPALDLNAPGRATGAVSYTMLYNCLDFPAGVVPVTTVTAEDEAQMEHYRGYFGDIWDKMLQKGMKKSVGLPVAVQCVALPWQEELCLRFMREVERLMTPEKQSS
Summary of the method: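 Homogenates of T84 cells or SK-N-MC cells stably transfected with human FAAH, in pH 9 Tris/EDTA buffer with 0.02% Triton X-100. Incubated 1 h at rt with compound and 80 nM (final) [3H-ethanolamine]-anandamide. Released 3H-ethanolamine separated on charcoal filters and counted by scintillation.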

Row | IC50 (Rat FAAH; read-out: Assay 2 IC50) [nM] | IC50 (FAAH; read-out: Assay 1 IC50) [nM] | SMILES | IC50 (Rat FAAH) [nM] | IC50 (FAAH) [nM]
1 | 1000 | 160 | O=C(Nc1cccnc1)N1CC2(CCN(Cc3cccc(Oc4ccc(C(F)(F)F)cc4)c3)CC2)C1 [Example 126, 7-[3-(4-Trifluoromethyl-phenoxy)-benzyl]-2,7-diaza-spiro[3.5]nonane-2-carboxylic acid pyridin-3-ylamide] |  | 
2 | 7070 | 70 | N#Cc1cccc(Oc2cccc(CN3CCC4(CC3)CN(C(=O)Nc3cccnc3)C4)c2)c1 [Example 116, 7-(3-(3-cyanophenoxy)benzyl)-N-(pyridin-3-yl)-2,7-diazaspiro[3.5]nonane-2-carboxamide] |  | 
3 | 840 | 60 | O=C(Nc1cccnc1)N1CC2(CCN(Cc3cccc(Oc4cccc(Cl)c4)c3)CC2)C1 [Example 112, 7-(3-(3-chlorophenoxy)benzyl)-N-(pyridin-3-yl)-2,7-diazaspiro[3.5]nonane-2-carboxamide] |  | 
4 | 3000 | 3000 | O=C(Nc1cccnc1)N1CC2(CCN(Cc3cccc(Oc4cccc(SC(F)(F)F)c4)c3)CC2)C1 [Example 117, N-(pyridin-3-yl)-7-(3-(3-(trifluoromethylthio)phenoxy)benzyl)-2,7-diazaspiro[3.5]nonane-2-carboxamide] |  | 
5 | > 10000 | 1180 | O=C(Nc1cccnc1)N1CC2(CCN(Cc3ccc(OC(F)(F)F)c(Cl)c3)CC2)C1 [Example 111, 7-(3-chloro-4-(trifluoromethoxy)benzyl)-N-(pyridin-3-yl)-2,7-diazaspiro[3.5]nonane-2-carboxamide] |  | 
6 | 2500 | 830 | O=C(Nc1cccnc1)N1CC2(CCN(Cc3cccc(Oc4ccc5ncccc5c4)c3)CC2)C1 [Example 130, 7-[3-(Quinolin-6-yloxy)-benzyl]-2,7-diaza-spiro[3.5]nonane-2-carboxylic acid pyridin-3-ylamide] |  | 
7 | 480 | 1100 | O=C(Nc1cccnc1)N1CCC2(CCCN2Cc2cccc(Oc3ccc(Cl)cc3)c2)CC1 [Example 93, 1-[3-(4-Chloro-phenoxy)-benzyl]-1,8-diaza-spiro[4.5]decane-8-carboxylic acid pyridin-3-ylamide] |  | 
8 | 3000 | 1600 | O=C(Nc1ccc(N2CCCCC2)nc1)N1CC2(CCN(Cc3cccc(Oc4ccc(Cl)cc4)c3)CC2)C1 [Example 81, 7-(3-(4-chlorophenoxy)benzyl)-N-(6-(piperidin-1-yl)pyridin-3-yl)-2,7-diazaspiro[3.5]nonane-2-carboxamide, trifluoroacetic acid salt] |  | 
9 | > 10000 | 8000 | O=C(Nc1cccnc1)N1CC2(CCN(Cc3ccc(Cl)cc3)CC2)C1 [Example 100, 7-(4-Chloro-benzyl)-2,7-diaza-spiro[3.5]nonane-2-carboxylic acid pyridin-3-ylamide] |  | 
10 | 10 | 110 | N#Cc1ccncc1NC(=O)N1CC2(CCN(Cc3cccc(Oc4ccc(Cl)cc4)c3)CC2)C1 [Example 84, 7-(3-(4-chlorophenoxy)benzyl)-N-(4-cyanopyridin-3-yl)-2,7-diazaspiro[3.5]nonane-2-carboxamide] |  | 
11 | 8000 | 1700 | O=C(Nc1cccnc1)N1CC2(CCN(Cc3cccc(Oc4ccc(S(=O)(=O)C(F)(F)F)cc4)c3)CC2)C1 [Example 129, 7-[3-(4-Trifluoromethanesulfonyl-phenoxy)-benzyl]-2,7-diaza-spiro[3.5]nonane-2-carboxylic acid pyridin-3-ylamide] |  | 
12 | 20 | 280 | O=C(Nc1cncc(Br)c1)N1CC2(CCN(Cc3cccc(Oc4ccc(Cl)cc4)c3)CC2)C1 [Example 82, N-(5-bromopyridin-3-yl)-7-(3-(4-chlorophenoxy)benzyl)-2,7-diazaspiro[3.5]nonane-2-carboxamide, trifluoroacetic acid salt] |  | 
13 | 1100 | 4000 | N#Cc1ccc(Oc2cccc(CN3CCC4(CC3)CN(C(=O)Nc3cccnc3)C4)c2)cc1 [Example 127, 7-[3-(4-Cyano-phenoxy)-benzyl]-2,7-diaza-spiro[3.5]nonane-2-carboxylic acid pyridin-3-ylamide] |  | 

The remaining lines, values behind:

Row | SMILES | IC50 (Rat FAAH; read-out: Assay 2 IC50) [nM] | IC50 (FAAH; read-out: Assay 1 IC50) [nM] | IC50 (Rat FAAH) [nM] | IC50 (FAAH) [nM]
14 | O=C(Nc1cnc2ccccn12)N1CC2(CCN(Cc3cccc(Oc4ccc(Cl)cc4)c3)CC2)C1 [Example 29, 7-(3-(4-chlorophenoxy)benzyl)-N-(imidazo[1,2-a]pyridin-3-yl)-2,7-diazaspiro[3.5]nonane-2-carboxamide] | 10 | 220 |  | 
15 | O=C(Nc1ncccn1)N1CC2(CCN(Cc3cccc(Oc4ccc(Cl)cc4)c3)CC2)C1 [Example 42, 7-[3-(4-Chloro-phenoxy)-benzyl]-2,7-diaza-spiro[3.5]nonane-2-carboxylic acid pyrimidin-2-ylamide, trifluoroacetic acid salt] | 1000 | > 10000 |  | 
16 | O=C(Nc1ccc(-n2nccn2)nc1)N1CCC2(CCCN(Cc3cccc(Oc4ccc(Cl)cc4)c3)C2)CC1 [Example 23, N-(6-(2H-1,2,3-triazol-2-yl)pyridin-3-yl)-2-(3-(4-chlorophenoxy)benzyl)-2,9-diazaspiro[5.5]undecane-9-carboxamide] | 500 | 1000 |  | 
17 | O=C(Nc1cncc(F)c1)N1CC2(CCN(Cc3cccc(Oc4ccc(Cl)cc4)c3)CC2)C1 [Example 73, 7-[3-(4-Chloro-phenoxy)-benzyl]-2,7-diaza-spiro[3.5]nonane-2-carboxylic acid (5-fluoro-pyridin-3-yl)-amide, trifluoroacetic acid salt] | 450 | 80 |  | 
18 | O=C(Nc1ccc(-n2cccn2)nc1)N1CC2(CCN(Cc3cccc(Oc4ccc(Cl)cc4)c3)CC2)C1 [Example 45, 7-[3-(4-Chloro-phenoxy)-benzyl]-2,7-diaza-spiro[3.5]nonane-2-carboxylic acid (6-pyrazol-1-yl-pyridin-3-yl)-amide, trifluoroacetic acid salt] | 100 | 40 |  | 
19 | O=C(Nc1cc[nH]n1)N1CC2(CCN(Cc3cccc(Oc4ccc(Cl)cc4)c3)CC2)C1 [Example 56, 7-[3-(4-Chloro-phenoxy)-benzyl]-2,7-diaza-spiro[3.5]nonane-2-carboxylic acid (1H-pyrazol-3-yl)-amide, trifluoroacetic acid salt] |  | 3690 | 1670 | 
20 | O=C(Nc1ccc(-n2nccn2)nc1)N1CCC2(CCCN2Cc2cccc(Oc3ccc(Cl)cc3)c2)C1 (stereo not shown) [Example 8, 1-[3-(4-Chloro-phenoxy)-benzyl]-1,7-diaza-spiro[4.4]nonane-7-carboxylic acid (6-[1,2,3]triazol-2-yl-pyridin-3-yl)-amide] | 3000 | 8000 |  | 
21 | O=C(Nc1ccc(-n2nccn2)nc1)N1CCC2(CCN(Cc3cccc(Oc4ccc(Cl)cc4)c3)C2)C1 (stereo not shown) [Example 11, 7-[3-(4-Chloro-phenoxy)-benzyl]-2,7-diaza-spiro[4.4]nonane-2-carboxylic acid (6-[1,2,3]triazol-2-yl-pyridin-3-yl)-amide] | 30 | 170 |  | 
22 | Cc1ccncc1NC(=O)N1CC2(CCN(Cc3cccc(Oc4ccc(Cl)cc4)c3)CC2)C1 [Example 85, 7-(3-(4-chlorophenoxy)benzyl)-N-(4-methylpyridin-3-yl)-2,7-diazaspiro[3.5]nonane-2-carboxamide] | 40 |  |  | 80
23 | O=C(Nc1cnc2[nH]ccc2c1)N1CCC2(CCCN2Cc2cccc(Oc3ccc(Cl)cc3)c2)C1 (stereo not shown) [Example 9, 1-[3-(4-Chloro-phenoxy)-benzyl]-1,7-diaza-spiro[4.4]nonane-7-carboxylic acid (1H-pyrrolo[2,3-b]pyridin-5-yl)-amide] | 320 | 1000 |  | 
